According to article PMC12439166, “Dietary flavonoids form supramolecular assemblies, alter biochemistry, and enhance cell resilience” (Frontiers in Nutrition, 2025):

Target: T1, Histone-Lysine N-methyltransferase (NSD2) (Homo sapiens, UniProt O96028)
T1 sequence (O96028 1-1365): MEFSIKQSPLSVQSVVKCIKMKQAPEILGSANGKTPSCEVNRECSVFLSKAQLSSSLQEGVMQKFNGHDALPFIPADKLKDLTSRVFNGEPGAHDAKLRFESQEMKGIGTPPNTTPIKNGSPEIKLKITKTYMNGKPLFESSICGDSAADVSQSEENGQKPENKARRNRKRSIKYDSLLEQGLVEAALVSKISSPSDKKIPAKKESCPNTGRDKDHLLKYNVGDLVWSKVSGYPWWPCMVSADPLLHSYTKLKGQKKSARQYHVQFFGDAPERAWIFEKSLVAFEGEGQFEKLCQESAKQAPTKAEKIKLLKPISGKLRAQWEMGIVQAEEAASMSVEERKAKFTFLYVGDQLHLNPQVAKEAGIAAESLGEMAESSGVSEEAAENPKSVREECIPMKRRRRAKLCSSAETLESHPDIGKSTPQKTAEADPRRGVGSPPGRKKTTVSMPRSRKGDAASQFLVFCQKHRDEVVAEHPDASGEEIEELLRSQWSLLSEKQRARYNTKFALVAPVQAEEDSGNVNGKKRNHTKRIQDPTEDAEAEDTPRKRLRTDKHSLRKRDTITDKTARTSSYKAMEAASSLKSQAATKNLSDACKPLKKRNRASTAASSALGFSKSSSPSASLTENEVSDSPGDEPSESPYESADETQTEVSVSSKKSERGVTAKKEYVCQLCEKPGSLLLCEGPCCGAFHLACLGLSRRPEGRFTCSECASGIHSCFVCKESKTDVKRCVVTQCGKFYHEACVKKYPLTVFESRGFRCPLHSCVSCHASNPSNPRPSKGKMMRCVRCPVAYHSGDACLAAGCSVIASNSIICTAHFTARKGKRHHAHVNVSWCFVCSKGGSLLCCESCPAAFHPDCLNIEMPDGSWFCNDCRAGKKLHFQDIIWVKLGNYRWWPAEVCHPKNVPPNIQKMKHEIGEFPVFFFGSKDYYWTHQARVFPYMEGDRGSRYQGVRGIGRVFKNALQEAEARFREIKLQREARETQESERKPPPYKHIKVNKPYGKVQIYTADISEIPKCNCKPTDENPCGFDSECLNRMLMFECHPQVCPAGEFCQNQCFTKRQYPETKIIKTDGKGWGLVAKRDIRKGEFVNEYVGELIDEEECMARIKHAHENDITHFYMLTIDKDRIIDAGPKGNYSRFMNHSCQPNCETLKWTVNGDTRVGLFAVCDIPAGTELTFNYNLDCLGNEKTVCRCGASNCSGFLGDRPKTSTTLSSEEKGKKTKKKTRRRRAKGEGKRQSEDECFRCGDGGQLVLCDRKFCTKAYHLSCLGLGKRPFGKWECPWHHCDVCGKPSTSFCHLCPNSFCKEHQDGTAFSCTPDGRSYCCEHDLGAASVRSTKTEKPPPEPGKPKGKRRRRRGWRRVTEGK
Experiment: Enzyme activity assay (SAMDI-MS), NSD2
Format: biochemical
Conditions: 10 concentrations, 5 nM to 100 μM, compounds incubated with enzyme 30 min, result in words
Procedure: Enzyme screens were performed by SAMDI Tech (contract research organization); enzyme assays were performed in a 20 μL volume in 384-well low-volume polypropylene microtiter plates (Greiner Bio-One) at room temperature. The enzymes [Arginase 1 (ARG1), Lysine demethylase 4C (KDM4C), MAP/microtubule affinity-regulating kinase 4 (MARK4), Histone-Lysine N-methyltransferase (NSD2), Tyrosine-protein phosphatase non-receptor type 1 (PTP1B), and Sirtuin-3 (SIRT3)] were incubated with compounds for 30 min prior to initiation of the reaction by the addition of substrate and cofactors (if required). Reactions were quenched by the addition of 0.5% formic acid (final) with subsequent neutralization using 1% sodium bicarbonate (final). For SAMDI MS analysis, 2 μL of each reaction was transferred using a 384-channel automated liquid handler to SAMDI biochip arrays functionalized with a neutravidin-presenting self-assembled monolayer. The preparation of SAMDI biochip arrays has been previously described ([41], [42], [49]). The SAMDI arrays were incubated for 1 h in a humidified chamber to allow specific immobilization of the biotinylated substrates and products; they were then purified by washing with ultrafiltered water (50 μL/spot) and dried with compressed air. A matrix comprising α-Cyano-4-hydroxycinnamic acid in 80% acetonitrile: 20% aqueous ammonium citrate (10 mg/mL final) was applied in an automated format by dispensing 50 nL to each spot in the array. SAMDI MS was performed using reflector positive mode on an AB Sciex TOF-TOF 5800 System (AB Sciex, Framingham, MA) with 400 shots/spot analyzed in a random raster sampling. For data analysis, the area under the curves (AUCs) for the product peak and substrate peak were calculated using the TOF/TOF Series Explorer (AB Sciex), and the amount of product formed was calculated using the equation AUC product / (AUC product + AUC Substrate). Negative controls were pre-quenched with 0.5% formic acid (final). Lysozyme assay was performed using the manufacturer’s instructions (Biovision Lysozyme inhibitor screening kit K237). Flavonoids were acquired from Sigma-Aldrich and Seleckchem.
IC50 values of enzyme inhibition. Inhibition of the enzymes was measured at 10 concentration values in the range of 5 nM to 100 μM for each compound and enzyme, with two technical replicates; the percent inhibition values were determined by SAMDI software. Sigmoidal curves were fitted to the percent inhibition vs log10 (concentration) series, and IC50 values were determined at the crossing point of 50 % inhibition. Manual verification of the fits and the IC50 values was performed. The resulting IC50 values fell into the following categories: (a) within the assayed range of 5nM to 100μM (26 % of fits), (b) IC50 could be extrapolated, IC50 > 100μM (12 % of fits), or (c) fitting was not possible because all values were at baseline (62 % of fits). Compound efficacy ranking. First, for each IC50 value per compound and enzyme, a Z-score was calculated based on the log10 (IC50) value and that of the compounds that produced a successful readout for enzyme i , according to Equation 1: […]

| SMILES | inhibition of enzyme activity, NSD2 | inhibition of enzyme activity, NSD2 (listed as Quercetin) | inhibition of enzyme activity, NSD2 (listed as Quercitin) |
| --- | --- | --- | --- |
| O=c1c(O)c(-c2ccc(O)c(O)c2)oc2cc(O)cc(O)c12 [quercetin] | blocked | inhibited | concentration-dependent inhibition |
| C[C@@H]1O[C@@H](Oc2c(-c3ccc(O)c(O)c3)oc3cc(O)cc(O)c3c2=O)[C@H](O)[C@H](O)[C@H]1O [quercitrin] | blocked | – | – |
| O=c1c(O[C@@H]2O[C@H](CO)[C@@H](O)[C@H](O)[C@H]2O)c(-c2ccc(O)c(O)c2)oc2cc(O)cc(O)c12 [isoquercitrin] | blocked | – | – |
